The structures appear in SMILES notation.

One assay concerns IL-1β production in PMA-differentiated THP-1 cells. The experiment in a line: IL-1β production in PMA-differentiated THP-1 cells stimulated with gramicidin (hTHP-1 assay, 2% fetal bovine serum; Procedures 1-3). It is filed as cell-based, human. The note with it: Homo sapiens, THP-1, Table B1; hTHP-1 assay containing 2% fetal bovine serum, gramicidin stimulation, IL-1β readout; read-out: hTHP-1 IC50 (average). The method, then:
The following protocol is suitable for testing the activity of the compounds disclosed herein.
Procedure 1: IL-1β Production in PMA-Differentiated THP-1 Cells Stimulated with Gramicidin.
THP-1 cells were purchased from the American Type Culture Collection and sub-cultured according to instructions from the supplier. Cells were cultured in complete RPMI 1640 (containing 10% heat inactivated FBS, penicillin (100 units/ml) and streptomycin (100 μg/ml)), and maintained in log phase prior to experimental setup. Prior to the experiment, compounds were dissolved in dimethyl sulfoxide (DMSO) to generate a 30 mM stock. The compound stock was first pre-diluted in DMSO to 3, 0.34, 0.042 and 0.0083 mM intermediate concentrations and subsequently spotted using Echo550 liquid handler into an empty 384-well assay plate to achieve desired final concentration (e.g. 100, 33, 11, 3.7, 1.2, 0.41, 0.14, 0.046, 0.015, 0.0051, 0.0017 μM). DMSO was backfilled in the plate to achieve a final DMSO assay concentration of 0.37%. The plate was then sealed and stored at room temperature until required.
THP-1 cells were treated with PMA (Phorbol 12-myristate 13-acetate) (20 ng/ml) for 16-18 hours. On the day of the experiment the media was removed and adherent cells were detached with trypsin for 5 minutes. Cells were then harvested, washed with complete RPMI 1640, spun down, and resuspended in RPMI 1640 (containing 2% heat inactivated FBS, penicillin (100 units/ml) and streptomycin (100 μg/ml). The cells were plated in the 384-well assay plate containing the spotted compounds at a density of 50,000 cells/well (final assay volume 50 μl). Cells were incubated with compounds for 1 hour and then stimulated with gramicidin (5 μM) (Enzo) for 2 hours. Plates were then centrifuged at 340 g for 5 min. Cell free supernatant (40 μL) was collected using a 96-channel PlateMaster (Gilson) and the production of IL-1β was evaluated by HTRF (cisbio). The plates were incubated for 18 h at 4° C. and read using the preset HTRF program (donor emission at 620 nm, acceptor emission at 668 nm) of the SpectraMax i3x spectrophotometer (Molecular Devices, software SoftMax 6). A vehicle only control and a dose titration of CRID3 (100-0.0017 μM) were run concurrently with each experiment.
Procedure 2: IL-1β Production in PMA-Differentiated THP-1 Cells Stimulated with Gramicidin.
THP-1 cells were purchased from the American Type Culture Collection and sub-cultured according to instructions from the supplier. Prior to experiments, cells were cultured in complete RPMI 1640 (containing 10% heat inactivated FBS, penicillin (100 units/ml) and streptomycin (100 μg/ml)), and maintained in log phase prior to experimental setup. Prior to the experiment THP-1 were treated with PMA (Phorbol 12-myristate 13-acetate) (20 ng/ml) for 16-18 hours. Compounds were dissolved in dimethyl sulfoxide (DMSO) to generate a 30 mM stock. On the day of the experiment the media was removed and adherent cells were detached with trypsin for 5 minutes. Cells were then harvested, washed with complete RPMI 1640, spun down, resuspended in RPMI 1640 (containing 2% heat inactivated FBS, penicillin (100 units/ml) and streptomycin (100 μg/ml) . The cells were plated in a 384-well plate at a density of 50,000 cells/well (final assay volume 50 μl). Compounds were first dissolved in assay medium to obtain a 5× top concentration of 500 μM. 10 step dilutions (1:3) were then undertaken in assay medium containing 1.67% DMSO. 5× compound solutions were added to the culture medium to achieve desired final concentration (e.g. 100, 33, 11, 3.7, 1.2, 0.41, 0.14, 0.046, 0.015, 0.0051, 0.0017 μM). Final DMSO concentration was at 0.37%. Cells were incubated with compounds for 1 hour and then stimulated with gramicidin (5 μM) (Enzo) for 2 hours. Plates were then centrifuged at 340 g for 5 min. Cell free supernatant (40 μL) was collected using a 96-channel PlateMaster (Gilson) and the production of IL-1β was evaluated by HTRF (cisbio). […]
Take `C[C@@](O)(CO)c1cc(F)c([S@](N)(=O)=NC(=O)Nc2c3c(c(C#N)c4c2CCC4)CCC3)s1` (single isomer, unassigned) [Compound 411a]: the IC50 (usually the concentration needed to halve the response being measured) is 0.04 to 0.2 µM.

As for `CNCc1cc(F)c(S(N)(=O)=NC(=O)Nc2c3c(cc4c2CCC4)CCC3)s1` (single isomer, unassigned) [Compound 412a], the concentration for half-maximal inhibition (IC50) lay in the range of 0.04 to 0.2 µM. The same measure, in the same setting: the same measure for `CN1CCc2cc(S(N)(=O)=NC(=O)Nc3c4c(cc5c3CCC5)CCC4)sc2C1` (single isomer, unassigned) [Compound 413a]: 0.04 to 0.2 µM. With `Cc1oc(S(N)(=O)=NC(=O)Nc2c3c(cc4c2CCC4)CCC3)cc1C(C)(C)O` (single isomer, unassigned) [Example 3], the IC50 fell in the range of 0.2 to 1 µM. The same measure, in the same setting: the same measure for `Cc1oc(S(N)(=O)=NC(=O)Nc2c3c(cc4c2CCC4C)CCC3)cc1C(C)(C)O` (single isomer, unassigned) [Example 125]: 0.04 to 0.2 µM; for `C#CCCC(=O)N(C)Cc1ccc(S(N)(=O)=NC(=O)Nc2c3c(cc4c2CCC4)CCC3)cc1` (single isomer, unassigned) [Example 312, (S) or (R)-N-(4-(N′-((1,2,3,5,6,7-hexahydro-s-indacen-4-yl)carbamoyl)-sulfamidimidoyl)benzyl)-N-methylpent-4-ynamide]: 1 to 5 µM; for `CC1CCc2c1cc1c(c2NC(=O)N=[S@@](N)(=O)c2cnc(C(C)(C)O)s2)CCC1` (single isomer, unassigned) [Example 323, (R, R) or (R, S)-2-(2-hydroxypropan-2-yl)-N′-((1-methyl-1,2,3,5,6,7-hexahydro-s-indacen-4-yl)carbamoyl)thiazole-5-sulfonimidamide]: 0.04 to 0.2 µM. Still for that read-out and setting: to `CCc1ccc2cn(C)nc2c1NC(=O)N=S(N)(=O)c1ncc(C(C)(C)O)s1` (single isomer, unassigned) [Example 329, (S) or (R)-N′-((6-ethyl-2-methyl-2H-indazol-7-yl)-carbamoyl)-5-(2-hydroxy-propan-2-yl)thiazole-2-sulfonimidamide] belongs > 30 µM.

The assay is the same for the next values; noted with them: Homo sapiens, THP-1, Table B3; hTHP-1 assay containing 2% fetal bovine serum, gramicidin stimulation, IL-1β readout; read-out: hTHP-1 IC50.
`C[C@](O)(COCCOCc1ccccc1)c1ccc([S@@](N)(=O)=NC(=O)Nc2c3c(cc4c2CCC4)CCC3)s1` (racemic) [Example 746, (S)-5-((S)-1-(2-(benzyloxy)ethoxy)-2-hydroxypropan-2-yl)-N′-((1,2,3,5,6,7-hexahydro-s-indacen-4-yl)carbamoyl)thiophene-2-sulfonimidamide]: the IC50 fell in the range of 0.2 to 1 µM.

Consider `C[C@](O)(COCCOCc1ccccc1)c1ccc(S(N)(=O)=NC(=O)Nc2c3c(cc4c2CCC4)CCC3)s1` (mixture of isomers) [Example 747, (S) and (R)-5-((S)-1-(2-(benzyloxy)ethoxy)-2-hydroxypropan-2-yl)-N′-((1,2,3,5,6,7-hexahydro-s-indacen-4-yl)carbamoyl)thiophene-2-sulfonimidamide], for which the 50% inhibitory concentration (IC50) fell in the range of 0.2 to 1 µM.

The assay is the same for the next values; noted with them: Homo sapiens, THP-1, hTHP-1 assay containing 2% fetal bovine serum, Table B2, given as bound; read-out: IC50.
Consider `CC(OC(F)F)c1ccc(S(N)(=O)=NC(=O)Nc2c3c(cc4c2CCC4)CCC3)cc1` (mixture of isomers) [Example 639, (R,S) and (S,S)-4-(1-(difluoromethoxy)ethyl)-N′-((1,2,3,5,6,7-hexahydro-s-indacen-4-yl)carbamoyl) benzenesulfonimidamide (mixture of two isomers)], for which the IC50 was > 30 µM.

The same assay, now with this note: Table B1; hTHP-1 assay containing 2% fetal bovine serum, gramicidin stimulation, IL-1β readout; read-out: hTHP-1 IC50 (average).
In the case of `CC(C)(O)c1ncc(S(N)(=O)=NC(=O)Nc2c3c(cc4c2CCC4)CCC3)s1` (single isomer, unassigned) [Example 5], the IC50 lay in the range of 0.2 to 1 µM.

As for `CC(C)(O)c1ncc(S(N)(=O)=NC(=O)Nc2c3c(cc4c2CCC4)CCC3)s1` (single isomer, unassigned) [Example 6], the half-inhibitory concentration (IC50) was 0.008 to 0.04 µM. As for `CC(C)(O)c1ccc(S(N)(=O)=NC(=O)Nc2c3c(cc4c2CCC4)CCC3)c(F)c1` (single isomer, unassigned) [Example 87], the IC50 is 0.04 to 0.2 µM.

Turning to `CC(C)(O)c1csc(S(N)(=O)=NC(=O)Nc2c3c(c(Cl)c4c2CCC4)CCC3)c1` (single isomer, unassigned) [Example 89], the IC50 fell in the range of 0.008 to 0.04 µM.

On to `CC(C)c1cc(C#N)c(F)c(C(C)C)c1NC(=O)N=S(N)(=O)c1cnc(C(C)(C)O)s1` (single isomer, unassigned) [Example 91], for which the concentration for half-maximal inhibition (IC50) is 0.04 to 0.2 µM. The same measure, in the same setting: the same measure for `CC(C)n1ccc(S(N)(=O)=NC(=O)Nc2c3c(cc4c2CCC4)CCC3)n1` (single isomer, unassigned) [Example 93]: 0.04 to 0.2 µM. Consider `CNS(=O)(=NC(=O)Nc1c2c(c(F)c3c1CCC3)CCC2)c1cc(C(C)(C)O)cs1` (single isomer, unassigned) [Example 181], for which the IC50 lay within 5 to 30 µM. Still for that read-out and setting: to `CC(C)c1cc(C#N)cc(C(C)C)c1NC(=O)N=S(N)(=O)c1cc(C(C)(C)O)cc(C(C)(C)O)c1` (single isomer, unassigned) [Example 198, N′-((4-cyano-2,6-diisopropylphenyl)carbamoyl)-3,5-bis(2-hydroxypropan-2-yl)benzenesulfonimidamide] belongs 5 to 30 µM; to `C#CCCC(=O)N(C)Cc1ccc(S(N)(=O)=NC(=O)Nc2c3c(cc4c2CCC4)CCC3)cc1` (single isomer, unassigned) [Example 313, (R) or (S)-N-(4-(N′-((1,2,3,5,6,7-hexahydro-s-indacen-4-yl)carbamoyl)-sulfamidimidoyl)benzyl)-N-methylpent-4-ynamide], 1 to 5 µM; to `CCc1ccc2cn(C)nc2c1NC(=O)N=S(N)(=O)c1ncc(C(C)(C)O)s1` (single isomer, unassigned) [Example 330, (R) or (S)-N′-((6-ethyl-2-methyl-2H-indazol-7-yl)-carbamoyl)-5-(2-hydroxy-propan-2-yl)thiazole-2-sulfonimidamide], > 30 µM.

Take `CC(C)(O)c1ncc(S(N)(=O)=NC(=O)Nc2c3c(cc4c2CCC4=O)CCC3)s1` (single isomer, unassigned) [Example 336, (R) or (S)-2-(2-Hydroxy-propan-2-yl)-N′-((1-oxo-1,2,3,5,6,7-hexahydro-s-indacen-4-yl)carbamoyl)-thiazole-5-sulfonimidamide]: the IC50 was in the range of 0.2 to 1 µM.

Still in this assay, the particulars now being: hTHP-1 assay containing 2% fetal bovine serum, Table B2, class symbols; read-out: IC50.
In the case of `CC(O)(CO)c1ncc(S(N)(=O)=NC(=O)Nc2c3c(c(C#N)c4c2CCC4)CCC3)s1` (mixture of isomers) [Example 635, (R,S) and (S,S)-N′-((8-cyano-1,2,3,5,6,7-hexahydro-indacen-4-yl)carbamoyl)-2-(1,2-dihydroxypropan-2-yl)thiazole-5-sulfonimidamide (mixture of two isomers)], the half-maximal inhibitory concentration (IC50) lay in the range of 5 to 30 µM.

As to `NS(=O)(=NC(=O)Nc1c2c(cc3c1CCC3)CCC2)c1ccc(C2CCCN2)cc1` (mixture of isomers) [Example 649, (S,R) or (R,R) and (S,S) or (R,S)-N′-((1,2,3,5,6,7-hexahydro-s-indacen-4-yl)carbamoyl)-4-(pyrrolidin-2-yl) benzenesulfonimidamide (mixture of two isomers)], the half-maximal inhibitory concentration (IC50) lay in the range of 5 to 30 µM.

For the origin of these results see US20230051589A1, “COMPOUNDS AND COMPOSITIONS FOR TREATING CONDITIONS ASSOCIATED WITH NLRP ACTIVITY” (Novartis AG, priority 2018, published 2023).
